Results published in BindingDB's records for doi:10.1111/cbdd.12307 (Peking University, 2014).

target: T1, Phospholipase A2, membrane associated (Homo sapiens, UniProt P14555); assay: Inhibitory Activity Assay; details: pH 8
T1 sequence (P14555 whole entry): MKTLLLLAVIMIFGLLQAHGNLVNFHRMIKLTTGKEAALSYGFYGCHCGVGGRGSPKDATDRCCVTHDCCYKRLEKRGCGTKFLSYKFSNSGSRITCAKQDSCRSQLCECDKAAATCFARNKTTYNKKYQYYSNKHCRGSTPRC
Method: The reaction mixture contained 160 uL of reaction buffer [50 mM Tris-HCl (pH 8.0), 100 mM NaCl, 5 ug/mL bovine serum albumin (BSA), 5 uM CaCl2, and 10 mM anilinonaphthalene sulfonate (ANS)], 20 uL of substrate stock solution (2 mM DMPC), and 2 mM of sodium deoxycholate in water. After 5 min of sonication, 10 uL of inhibitor stock solution (in DMSO) were incubated at 28 uC for 10 min. The reactions were started by adding 10 uL of hnps-PLA2 stock solution (0.1 mg/mL) and monitored by excitation at 377 nm and emission at 470 nm.

Going from `O=C(N[C@@H](Cc1ccc([NH+]([O-])O)cc1)C(=O)O)OCC1c2ccccc2-c2ccccc21` (some centres not stated) [DCSD 001360 (3)] to `O=C(N[C@@H](Cc1ccc(O)c([NH+]([O-])O)c1)C(=O)O)OCC1c2ccccc2-c2ccccc21` (some centres not stated) [DCSD 002267 (4)], the IC50 rises from 21.4 µM to 41 µM (1.9-fold).

`O=C(CCc1ccccc1)CC[C@H](NC(=O)OCC1c2ccccc2-c2ccccc21)C(=O)O` [DCSD 001850 (5)] and `O=C(N[C@H](Cc1ccccc1)C(=O)O)OCC1c2ccccc2-c2ccccc21` [DCSD 002855 (1)] are within 1.5-fold of each other in IC50: 34.5 µM for the first, 47.5 µM for the second.

`O=C(N[C@H](Cc1ccc2ccccc2c1)C(=O)O)OCC1c2ccccc2-c2ccccc21` [DCSD 002847 (2)] and `O=C(COc1ccc2ccccc2c1)N/N=C/c1cccc(OC(=O)c2cc([NH+]([O-])O)cc([NH+]([O-])O)c2)c1` (configuration not stated) [SPECS AG-690/40108589 (7)] are within 1.5-fold of each other in IC50: 8.6 µM for the first, 12.2 µM for the second.

With `O=C(COc1ccc(/C=N/NC(=O)c2ccccc2[NH+]([O-])O)cc1)Nc1cccc([NH+]([O-])O)c1` (configuration not stated) [SPECS AG-690/40696769 (6)] the IC50 was 9 µM.
